Results from the supplement of paper PMC12317010.
Counter-ions that a name gives are not always drawn.

Assay: collision cross section in nitrogen (drift tube, single-field); higher = larger gas-phase ion size
[1] = ion type: [M+H], ion source: APCI, ion mode: Positive
[2] = ion type: [M+H], ion source: ESI, ion mode: Positive
[3] = ion type: [M-H], ion source: ESI, ion mode: Negative
[4] = ion type: [M+Na], ion source: ESI, ion mode: Positive
[5] = ion type: [M+], ion source: APCI, ion mode: Positive
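Further: chemical standards at 10 µM analysed by drift tube IMS-QTOF MS in about 3.95 torr nitrogen, mean of duplicate injections differing ≤1%, mass error below 10 ppm.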

Row | Structure (SMILES) | collision cross section in nitrogen [1] [Å²] | collision cross section in nitrogen [2] [Å²] | collision cross section in nitrogen [3] [Å²] | collision cross section in nitrogen [4] [Å²] | collision cross section in nitrogen [5] [Å²]
1 | COc1ccc(OC)c(N=Nc2c(O)ccc3ccccc23)c1 [C.I. Solvent Red 80] | 171.6 | 171.6 | 177.5 |  | 
2 | CN(CCO)CC(O)Cn1cnc2c1c(=O)n(C)c(=O)n2C (stereo not given) [Xanthinol niacinate] | 171.8 | 171.7 |  | 175.7 | 
3 | Nc1ccc(-c2ccc(N)cc2)cc1 [4,4′-Diamino-1,1′-biphenyl] | 156.9 | 157 |  |  | 139.4
4 | CC1=NN(c2cc(Cl)c(S(=O)(=O)O)cc2Cl)C(=O)C1N=Nc1ccc(S(=O)(=O)O)cc1 (stereo not given) [C.I. Acid Yellow 17, disodium salt] |  |  | 227.6 |  | 
5 | O=c1cc(-c2ccccc2)oc2cc(O)cc(O)c12 [Chrysin] | 155.4 | 154.8 | 157.7 |  | 
6 | O=C(c1ccccc1)c1ccc(O)c(O)c1O [2,3,4-Trihydroxbenzophenone] |  |  | 151.1 |  | 
7 | Nc1ccnc(=O)[nH]1 [Cytosine] | 117.3 | 118.8 |  |  | 
8 | COC(=O)C(C)N(C(=O)c1ccco1)c1c(C)cccc1C (stereo not given) [Furalaxyl] | 162.1 | 161.4 |  | 178 | 
9 | COc1cccc(-c2ccc(/C=C\CN3CCCCCC3)cc2Cl)c1 | 185.2 | 185.6 |  | 196.9 | 
10 | COP(N)(=S)Oc1ccccc1C(=O)OC(C)C (stereo not given) [Isocarbophos] |  |  |  | 168.6 | 
11 | CCCCN(CCCC)CCCCCCN(CCCC)CCCC [N,N,N',N'-Tetrabutyl-1,6-hexanediamine] |  | 193.6 |  |  | 
12 | CC1(C)O[C@@H]2C[C@H]3[C@@H]4C[C@H](F)C5=CC(=O)CC[C@]5(C)[C@H]4[C@@H](O)C[C@]3(C)[C@]2(C(=O)CO)O1 [Flurandrenolide] |  | 186.9 | 201.8 |  | 
13 | O=C(OCCOCCOC(=O)c1ccccc1)c1ccccc1 [Diethylene glycol dibenzoate] |  |  |  | 180.8 | 
14 | C=CC(C)(CCC=C(C)C)OC(C)=O (stereo not given) [Linalyl acetate] |  |  | 152 |  | 
15 | CN(C)CCC(c1ccc(Br)cc1)c1ccccn1 (stereo not given) [Brompheniramine hydrogen maleate] | 167.1 | 167.8 |  |  | 
16 | Oc1ccc(Oc2ccccc2)cc1 [4-Phenoxyphenol] |  |  | 145.7 |  | 
17 | CC(=NNC(=O)Nc1cc(F)cc(F)c1)c1ncccc1C(=O)O [Diflufenzopyr] |  |  |  | 181.6 | 
18 | Nc1cc(Cl)c(-c2cc(Cl)c(N)cc2Cl)cc1Cl [2,2',5,5'-Tetrachlorobenzidine] |  |  | 167.6 |  | 164.9
19 | CCN1CCC2(CC1)COc1cc3c(cc12)N(C(=O)c1ccc(-c2ccc(-c4nnc(C)o4)cc2C)cc1)CC3 | 229.6 | 229.1 |  | 264.1 | 
20 | CCCCCCOCCOCCO [2-[2-(Hexyloxy)ethoxy]ethanol] |  |  |  | 151.8 | 
21 | CC1(C)CCC(Cc2ccc(Cl)cc2)C1(O)Cn1cncn1 (stereo not given) [Metconazole] | 169.3 | 169.1 |  | 176.1 | 

Row | Structure (SMILES) | collision cross section in nitrogen [1] [Å²] | collision cross section in nitrogen [2] [Å²] | collision cross section in nitrogen [3] [Å²] | collision cross section in nitrogen [4] [Å²] | collision cross section in nitrogen [5] [Å²]
22 | CCC(C)(C)C(=O)OC1=C(c2ccc(Cl)cc2Cl)C(=O)OC12CCCCC2 [Spirodiclofen] |  |  |  | 209.5 | 
23 | COc1ccccc1NC(=O)c1cc2ccccc2cc1O [3-Hydroxy-2-naphthoic o-anisidide] | 167.3 | 167.5 | 168.9 | 181.8 | 
24 | Oc1ccc(C2COc3cc(O)ccc3C2)cc1 (racemic) [(R,S)-Equol] |  |  | 159.6 |  | 
25 | Cc1cc(Cl)ccc1N=CN(C)C [Chlordimeform] | 145.6 | 146.4 |  |  | 
26 | OCCc1ccccn1 [2-(2-Pyridyl)ethanol] | 120.7 | 121.2 |  |  | 
27 | O=C(O)c1ccc(S(=O)(=O)O)cc1C(=O)O [4-Sulfophthalic acid] |  |  | 145.3 |  | 
28 | COc1ccn(C)c(=O)c1C#N [Ricinine] | 132.2 | 132.4 |  | 143 | 
29 | CCCC1O[C@@H]2C[C@H]3[C@@H]4CCC5=CC(=O)C=C[C@]5(C)[C@H]4[C@@H](O)C[C@]3(C)[C@]2(C(=O)CO)O1 (stereo not given in full) [Budesonide] |  |  | 204.6 | 230.4 | 
30 | COc1cc2c(c(OC)c1OC)-c1ccc(OC)c(=O)cc1[C@@H](NC(C)=O)CC2 [Colchicine] | 197 | 195.9 | 197.3 | 204.3 | 
31 | Cc1c[nH]c2ccccc12 [3-Methylindole] |  |  | 125.2 |  | 
32 | N[C@@H](Cc1c[nH]c2ccccc12)C(=O)O [l-Tryptophan] |  |  | 151.6 |  | 
33 | CCOC(=O)C(Cl)Cc1cc(-n2nc(C)n(C(F)F)c2=O)c(F)cc1Cl (stereo not given) [Carfentrazone-ethyl] |  | 180.3 |  | 187.9 | 
34 | O=C(NC(=O)c1c(F)cccc1F)Nc1cc(Cl)c(F)c(Cl)c1F [Teflubenzuron] |  |  | 178.7 |  | 
35 | Cc1cc(O)c(C(C)C)cc1Cl [6-Chlorothymol] |  |  | 140.5 |  | 
36 | CC1=NN(c2cc(S(=O)(=O)O)ccc2Cl)C(=O)C1/N=N/c1ccccc1 (stereo not given) [C.I. Acid Yellow 34, monosodium salt] |  | 196.9 | 202.7 |  | 
37 | CC(=O)Nc1nnc(S(N)(=O)=O)s1 [Acetazolamide] |  |  | 137.8 |  | 
38 | CCOc1ccc2[nH]cc(C(=O)NCc3ccccc3)c(=O)c2n1 | 184.3 | 183.9 | 183.9 | 187 | 
39 | O=C1c2ccccc2C(=O)c2cc(S(=O)(=O)O)ccc21 [Sodium 2-anthraquinonesulfonate] |  |  | 162 |  | 
40 | Cn1sccc1=O [2-Methyl-3-isothiazolone hydrochloride] |  | 118.5 |  |  | 
41 | O=C1c2ccccc2C(=O)c2c(O)ccc(O)c21 [1,4-Dihydroxyanthracene-9,10-dione] |  |  | 148.9 |  | 
42 | CON(C)C(=O)Nc1ccc(Cl)c(Cl)c1 [Linuron] |  |  | 151.1 |  | 

Row | Structure (SMILES) | collision cross section in nitrogen [1] [Å²] | collision cross section in nitrogen [2] [Å²] | collision cross section in nitrogen [3] [Å²] | collision cross section in nitrogen [4] [Å²] | collision cross section in nitrogen [5] [Å²]
43 | C=CC(=O)NCNC(=O)C=C [N,N'-Methylenebisacrylamide] |  |  |  | 138.1 | 
44 | CC(C)C1=CC2=CC[C@@H]3[C@](C)(CCC[C@@]3(C)C(=O)O)[C@H]2CC1 [Sodium abietate] |  |  | 182 |  | 
45 | Cc1ccc2nc(-c3ccc(N)cc3)sc2c1 [Dehydrothio-4-toluidine] | 153.9 | 153.9 | 155.8 |  | 153.5
46 | Cc1[nH]c(=O)c(C#N)cc1-c1ccncc1 [Milrinone] | 157.1 | 156.3 | 147.4 |  | 
47 | CC=CC(=O)N(CC)c1ccccc1C [Crotamiton] | 145.3 | 145.7 |  | 157 | 
48 | CC(C)(c1ccc(OCC2CO2)cc1)c1ccc(OCC2CO2)cc1 (stereo not given) [Bisphenol A diglycidyl ether] |  |  |  | 176.7 | 
49 | Nc1c2ccccc2nc2ccccc12 [9-Aminoacridine hydrochloride monohydrate] | 138.8 | 138.9 | 139.3 |  | 139
50 | CC(=O)CC(=O)Nc1ccccc1C [N-(2-Methylphenyl)-3-oxobutanamide] |  |  | 142.5 | 154.9 | 
51 | CCCCCCCCCCCCCC(=O)OCC [Ethyl tetradecanoate] |  |  | 169.8 |  | 
52 | Cc1c(N(C)C)c(=O)n(-c2ccccc2)n1C [4-Dimethylaminoantipyrine] | 152.1 | 152.5 |  | 166.2 | 
53 | O=S(=O)(O)c1ccc2cc(O)ccc2c1 [Potassium 6-hydroxynaphthalene-2-sulfonate] |  |  | 148.2 |  | 
54 | CCCN(CC1CC1)c1c([N+](=O)[O-])cc(C(F)(F)F)cc1[N+](=O)[O-] [Profluralin] |  |  | 172.2 |  | 
55 | CCCCC(CC)CCC(CC(C)C)OS(=O)(=O)O (stereo not given) [7-Ethyl-2-methyl-4-undecanolsulfate, sodium salt] |  |  | 175.2 |  | 
56 | COC(=O)c1sccc1S(N)(=O)=O [Methyl 3-sulfamoylthiophene-2-carboxylate] |  |  | 141.1 | 148.5 | 
57 | NCc1cccc(C2CCN(C(=O)c3ccc(C#Cc4ccccc4F)o3)CC2)c1 [AVE5638] | 192.1 | 192.4 |  |  | 
58 | CCC(Cc1ccccc1)(C(=O)c1ccc(N2CCOCC2)cc1)N(C)C (stereo not given) | 195.7 | 195.7 |  |  | 
59 | CCCCCCC(O)CCCCCCCCCCC(=O)OC (stereo not given) [Methyl 12-hydroxyoctadecanoate] |  |  |  | 194.2 | 
60 | CCOP(=O)(OCC)Oc1nc(Cl)c(Cl)cc1Cl [Chlorpyrifos oxon] | 162.3 | 162.7 |  | 171 | 
61 | O=S(=O)(O)c1cccc2c(S(=O)(=O)O)cccc12 [1,5-Naphthalenedisulfonic acid, disodium salt hydrate] |  |  | 156.3 |  | 
